Kd data for three compounds are collected here from paper PMC4349456, “Automated genomic context analysis and experimental validation platform for discovery of prokaryote transcriptional regulator functions” (BMC Genomics, 2014).

The assay deals with T1, Bxe_B3018 (MgxR).
T1 construct: GST-tagged (N-terminal, pGEX-KG / pGEX-T2), tag kept; expressed in Arctic Express cells; GSTrap and Superdex 200 purified
As to the kind of experiment: fluorescence anisotropy, collapse of complex with fluorescein-labelled DNA operator. Also noted: species or system Paraburkholderia xenovorans. The conditions noted are these: apparent, from loss of DNA operator binding; 250 nM GST-Bxe_B3018, 1 nM DOS; pH 7.5, 30 °C, 1 mM MgCl2, 1 mM DTT.

With `CC(=O)CN(C)C` [N,N-dimethylaminoacetone], the Kd came to 2600 ± 200 µM.

Take `CC(=O)CN` [Aa, aminoacetone]: the Kd stood at 2100 ± 400 µM.

With `CC(=O)C=O` [Mgx, methylglyoxal], the Kd is 2100 ± 200 µM.
